# Columns and labels:
# [1] = molecular target: PI3-kinase p110-alpha/p85-alpha (Homo sapiens, UniProt P42336); assay: Inhibition of PI3K p110alpha/p85alpha (unknown origin) using PIP2 as substrate preincubated for 15 mins followed by substrate addition measured after 1 hr in presence of ATP by TR-FRET assay; type: protein-complex assay
# mTORC1 [2] = molecular target: T1, mTORC1 (Homo sapiens, UniProt P42345+Q8N122+Q9BVC4); assay: Inhibition of mTORC1 in human MDA-MB-468 cells assessed as measuring phosphorylated P70S6K incubated for 2 to 4 hrs by AlphaLISA assay; type: cell-based
# T1 sequence (Q8N122 whole entry, looked up, other chains not shown): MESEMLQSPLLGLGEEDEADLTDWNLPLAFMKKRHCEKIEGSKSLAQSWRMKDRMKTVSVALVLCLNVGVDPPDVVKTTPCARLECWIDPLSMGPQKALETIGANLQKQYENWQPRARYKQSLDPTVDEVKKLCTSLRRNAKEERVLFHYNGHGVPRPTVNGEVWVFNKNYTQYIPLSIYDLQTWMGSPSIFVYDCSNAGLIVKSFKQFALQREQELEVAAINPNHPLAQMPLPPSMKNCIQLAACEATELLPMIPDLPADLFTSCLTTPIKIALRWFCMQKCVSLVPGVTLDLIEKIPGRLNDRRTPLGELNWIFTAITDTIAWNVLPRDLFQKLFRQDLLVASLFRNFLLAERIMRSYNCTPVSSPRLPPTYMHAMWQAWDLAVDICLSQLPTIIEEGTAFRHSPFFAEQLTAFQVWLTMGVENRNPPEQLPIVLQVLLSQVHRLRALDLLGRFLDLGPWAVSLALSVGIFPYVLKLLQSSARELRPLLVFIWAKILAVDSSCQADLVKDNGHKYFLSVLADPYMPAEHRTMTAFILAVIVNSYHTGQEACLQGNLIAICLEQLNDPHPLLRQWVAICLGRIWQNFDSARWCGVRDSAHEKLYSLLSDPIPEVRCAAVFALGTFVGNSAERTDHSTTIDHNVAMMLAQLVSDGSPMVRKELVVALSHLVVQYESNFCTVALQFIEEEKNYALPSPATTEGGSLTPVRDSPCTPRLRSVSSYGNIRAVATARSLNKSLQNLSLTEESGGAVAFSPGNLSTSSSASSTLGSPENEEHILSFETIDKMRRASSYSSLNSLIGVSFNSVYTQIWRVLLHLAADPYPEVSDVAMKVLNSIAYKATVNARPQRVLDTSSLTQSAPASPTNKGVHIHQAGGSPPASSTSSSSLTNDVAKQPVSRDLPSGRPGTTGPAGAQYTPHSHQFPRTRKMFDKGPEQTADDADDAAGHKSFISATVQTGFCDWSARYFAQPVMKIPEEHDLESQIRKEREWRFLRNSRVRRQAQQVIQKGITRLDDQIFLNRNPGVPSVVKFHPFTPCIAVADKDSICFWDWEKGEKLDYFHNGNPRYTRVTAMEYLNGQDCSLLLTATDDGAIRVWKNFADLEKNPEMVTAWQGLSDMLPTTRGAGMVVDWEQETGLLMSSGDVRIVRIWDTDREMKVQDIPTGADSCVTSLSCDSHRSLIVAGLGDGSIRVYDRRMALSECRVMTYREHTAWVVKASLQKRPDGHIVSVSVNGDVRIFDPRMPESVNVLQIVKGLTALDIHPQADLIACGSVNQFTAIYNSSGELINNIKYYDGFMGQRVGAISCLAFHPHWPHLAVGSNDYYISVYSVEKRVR
# T1 sequence (Q9BVC4 whole entry, looked up, other chains not shown): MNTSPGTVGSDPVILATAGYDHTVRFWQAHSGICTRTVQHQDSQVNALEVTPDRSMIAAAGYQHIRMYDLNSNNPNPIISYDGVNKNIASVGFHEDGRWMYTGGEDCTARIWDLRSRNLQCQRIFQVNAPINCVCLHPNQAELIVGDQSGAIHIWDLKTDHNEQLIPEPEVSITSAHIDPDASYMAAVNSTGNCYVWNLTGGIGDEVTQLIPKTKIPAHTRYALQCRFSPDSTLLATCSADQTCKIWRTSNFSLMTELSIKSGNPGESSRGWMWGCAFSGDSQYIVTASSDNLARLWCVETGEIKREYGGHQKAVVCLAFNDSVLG
# mTORC1 [3] = molecular target: T1, mTORC1; assay: Inhibition of mTORC1 in human MDA-MB-468 cells assessed as measuring phosphorylated 4EBP1 incubated for 2 to 4 hrs by AlphaLISA assay; type: cell-based
# mTORC2 = mTORC2 (Homo sapiens, UniProt P42345+Q6R327+Q9BPZ7+Q9BVC4); assay: Inhibition of mTORC2 in human MDA-MB-468 cells assessed as measuring phosphorylated AKT incubated for 2 to 4 hrs by AlphaLISA assay; type: cell-based
# mTORC1 [4] = molecular target: T1, mTORC1; assay: Inhibition of mTORC1 (unknown origin); type: protein-complex assay
# [5] = molecular target: T2, Phosphatidylinositol 4,5-bisphosphate 3-kinase catalytic subunit delta isoform (Homo sapiens, UniProt O00329); assay: Inhibition of human PI3Kdelta preincubated for 15 mins followed by ATP addition measured after 1 hr by TR-FRET assay
# T2 sequence (O00329 whole entry): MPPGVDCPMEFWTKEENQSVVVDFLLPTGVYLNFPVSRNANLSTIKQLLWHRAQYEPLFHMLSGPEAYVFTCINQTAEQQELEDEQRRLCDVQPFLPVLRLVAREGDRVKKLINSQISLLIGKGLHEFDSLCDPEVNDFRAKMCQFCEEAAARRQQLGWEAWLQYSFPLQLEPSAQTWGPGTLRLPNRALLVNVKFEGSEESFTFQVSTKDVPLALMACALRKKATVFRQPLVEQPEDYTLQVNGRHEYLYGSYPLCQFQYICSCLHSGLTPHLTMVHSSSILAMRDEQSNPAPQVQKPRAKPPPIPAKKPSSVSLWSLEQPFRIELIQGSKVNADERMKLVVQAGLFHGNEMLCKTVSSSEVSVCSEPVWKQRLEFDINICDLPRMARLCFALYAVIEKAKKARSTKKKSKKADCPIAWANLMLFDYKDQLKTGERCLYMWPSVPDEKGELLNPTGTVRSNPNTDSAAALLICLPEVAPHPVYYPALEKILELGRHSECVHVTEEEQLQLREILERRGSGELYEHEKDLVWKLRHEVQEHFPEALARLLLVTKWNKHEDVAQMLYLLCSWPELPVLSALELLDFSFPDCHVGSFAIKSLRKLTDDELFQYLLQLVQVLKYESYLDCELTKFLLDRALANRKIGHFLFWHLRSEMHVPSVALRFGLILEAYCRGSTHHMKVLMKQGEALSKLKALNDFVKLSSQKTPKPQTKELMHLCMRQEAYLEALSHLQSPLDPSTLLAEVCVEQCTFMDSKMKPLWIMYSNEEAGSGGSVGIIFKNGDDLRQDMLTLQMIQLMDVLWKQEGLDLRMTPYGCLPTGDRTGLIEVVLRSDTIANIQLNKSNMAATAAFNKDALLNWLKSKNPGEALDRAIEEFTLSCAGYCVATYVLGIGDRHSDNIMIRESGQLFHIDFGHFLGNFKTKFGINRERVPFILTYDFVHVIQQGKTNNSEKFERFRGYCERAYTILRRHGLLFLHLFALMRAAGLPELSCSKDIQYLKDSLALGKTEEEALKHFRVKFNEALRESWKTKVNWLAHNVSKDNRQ
# [6] = molecular target: Peptidyl-prolyl cis-trans isomerase FKBP1A (Homo sapiens, UniProt P62942); assay: Binding affinity to FKBP12 (unknown origin) assessed as inhibition constant
# Sequence of Peptidyl-prolyl cis-trans isomerase FKBP1A (P62942 whole entry): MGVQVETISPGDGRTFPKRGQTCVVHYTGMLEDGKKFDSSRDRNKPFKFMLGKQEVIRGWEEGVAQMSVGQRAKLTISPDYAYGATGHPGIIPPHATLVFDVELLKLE
# mTORC1 [7] = molecular target: T1, mTORC1; assay: Inhibition of mTORC1 (unknown origin) assessed as measuring phosphorylated p7OS6K level at 0.2 uM relative to control; type: protein-complex assay
# mTORC1 [8] = molecular target: T1, mTORC1; assay: Inhibition of mTORC1 (unknown origin) assessed as measuring phosphorylated 4EBP1 level at 1 uM relative to control; type: protein-complex assay
# Sequence of PI3-kinase p110-alpha/p85-alpha (P27986 whole entry): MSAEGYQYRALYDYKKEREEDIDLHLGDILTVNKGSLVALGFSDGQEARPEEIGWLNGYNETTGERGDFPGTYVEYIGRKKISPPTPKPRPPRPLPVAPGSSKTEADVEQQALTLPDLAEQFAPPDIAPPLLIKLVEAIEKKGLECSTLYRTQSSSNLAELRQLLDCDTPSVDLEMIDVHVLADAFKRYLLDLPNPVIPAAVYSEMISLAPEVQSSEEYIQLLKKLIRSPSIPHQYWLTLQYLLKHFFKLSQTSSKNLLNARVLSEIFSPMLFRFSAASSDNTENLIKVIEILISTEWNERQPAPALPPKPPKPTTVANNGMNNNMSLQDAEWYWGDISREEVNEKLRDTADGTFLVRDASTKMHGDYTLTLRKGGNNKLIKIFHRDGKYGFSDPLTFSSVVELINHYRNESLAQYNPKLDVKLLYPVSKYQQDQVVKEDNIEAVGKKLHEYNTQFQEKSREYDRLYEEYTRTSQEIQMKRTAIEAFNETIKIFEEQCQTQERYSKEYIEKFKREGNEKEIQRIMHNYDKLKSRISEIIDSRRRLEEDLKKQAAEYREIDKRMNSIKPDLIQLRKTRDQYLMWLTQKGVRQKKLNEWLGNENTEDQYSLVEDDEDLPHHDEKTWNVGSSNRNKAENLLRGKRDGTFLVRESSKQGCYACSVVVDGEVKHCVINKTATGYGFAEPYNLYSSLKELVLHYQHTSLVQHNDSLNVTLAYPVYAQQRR
# Sequence of PI3-kinase p110-alpha/p85-alpha (P42336 whole entry): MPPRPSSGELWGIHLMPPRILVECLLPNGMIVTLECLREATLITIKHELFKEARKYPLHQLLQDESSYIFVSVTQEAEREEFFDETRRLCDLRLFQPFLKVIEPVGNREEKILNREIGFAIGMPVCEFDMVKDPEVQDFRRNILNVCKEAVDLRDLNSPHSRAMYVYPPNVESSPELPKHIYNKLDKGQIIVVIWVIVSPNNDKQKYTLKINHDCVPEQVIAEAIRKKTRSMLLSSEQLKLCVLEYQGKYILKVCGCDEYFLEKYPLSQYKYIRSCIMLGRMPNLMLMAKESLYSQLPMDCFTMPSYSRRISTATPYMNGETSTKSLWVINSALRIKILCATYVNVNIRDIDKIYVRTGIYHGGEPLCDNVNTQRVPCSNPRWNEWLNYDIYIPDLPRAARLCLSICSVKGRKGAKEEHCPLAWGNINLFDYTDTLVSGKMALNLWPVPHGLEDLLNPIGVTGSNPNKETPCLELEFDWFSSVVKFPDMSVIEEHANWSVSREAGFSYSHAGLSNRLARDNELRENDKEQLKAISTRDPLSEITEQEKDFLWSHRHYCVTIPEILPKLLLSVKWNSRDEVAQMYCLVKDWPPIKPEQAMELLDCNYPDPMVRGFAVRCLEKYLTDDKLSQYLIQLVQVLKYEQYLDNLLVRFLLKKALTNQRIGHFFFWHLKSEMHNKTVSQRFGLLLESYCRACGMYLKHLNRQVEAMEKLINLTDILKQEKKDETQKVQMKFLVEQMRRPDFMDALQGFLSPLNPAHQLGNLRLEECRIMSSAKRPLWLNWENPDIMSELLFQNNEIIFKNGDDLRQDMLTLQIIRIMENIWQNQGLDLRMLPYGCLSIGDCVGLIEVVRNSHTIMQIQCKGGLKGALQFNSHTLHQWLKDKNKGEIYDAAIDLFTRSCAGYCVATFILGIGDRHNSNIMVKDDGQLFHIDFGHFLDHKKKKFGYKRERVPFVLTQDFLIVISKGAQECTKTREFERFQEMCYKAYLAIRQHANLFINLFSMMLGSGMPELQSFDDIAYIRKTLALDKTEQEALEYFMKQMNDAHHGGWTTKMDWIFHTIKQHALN
SMILES,IC50 (mTORC1 [2]),IC50 (mTORC1 [3]),IC50 (mTORC2),other results
CN(C)C(=O)c1ccc(Oc2nc(-c3cnc(N)cc3C(F)(F)F)nc(N3CCOCC3)n2)c(F)c1,–,–,–,IC50 [1]: < 1000 nM
CO[C@H]1C[C@@H]2CC[C@@H](C)[C@@](O)(O2)C(=O)C(=O)N2CCCC[C@H]2C(=O)O[C@H]([C@H](C)C[C@@H]2CC[C@@H](OCCCCc3cn(CCOCCOCCOCCOCCOCCOCCC(=O)NCCCCn4nc(-c5cccc(C(=O)NC6=NCCS6)c5)c5c(N)ncnc54)nn3)[C@H](OC)C2)CC(=O)[C@H](C)/C=C(\C)[C@@H](O)[C@@H](OC)C(=O)[C@H](C)C[C@H](C)C\C=C/C=C/C=C/1C,≤ 1 nM,≤ 3.16 nM,> 31.6 nM,–
CO[C@H]1C[C@@H]2CC[C@@H](C)[C@@](O)(O2)C(=O)C(=O)N2CCCC[C@H]2C(=O)O[C@H]([C@H](C)C[C@@H]2CC[C@@H](OCCCN3CCOC(C)(C)C3)[C@H](OC)C2)C[C@@H](O)[C@H](C)/C=C(\C)[C@@H](O)[C@@H](OC)C(NOCC(=O)NCCOCCOCCOCCOCCOCCOCCC(=O)N2CCc3cc(Cn4nc(-c5ccc6oc(N)nc6c5)c5c(N)ncnc54)ccc3C2)[C@H](C)C[C@H](C)C\C=C/C=C/C=C/1C (stereo partly specified),≤ 1 nM,≤ 3.16 nM,1000 nM,–
CO[C@H]1C[C@@H]2CC[C@@H](C)[C@@](O)(O2)C(=O)C(=O)N2CCCC[C@H]2C(=O)O[C@H]([C@H](C)C[C@@H]2CC[C@@H](O)[C@H](OC)C2)C[C@@H](O)[C@H](C)/C=C(\C)[C@@H](O)[C@@H](OC)/C(=N\OCc2cn(-c3cnc(N4CCN(c5ncc(C(=O)NCCOCCC(=O)NCCCCn6nc(-c7ccc8oc(N)nc8c7)c7c(N)ncnc76)cn5)CC4)nc3)nn2)[C@H](C)C[C@H](C)C\C=C/C=C/C=C/1C,≤ 1 nM,≤ 3.16 nM,> 31.6 nM,–
CC(=O)N1CCC(n2nc(-c3cc4c(Cl)ccc(O)c4[nH]3)c3c(N)ncnc32)CC1,–,–,–,IC50 (mTORC1 [4]): < 5 nM; IC50 [5]: 100 nM
CO[C@@H]1C[C@@H]2CC[C@@H](C)[C@@](O)(O2)C(=O)C(=O)N2CCCC[C@H]2C(=O)OC([C@H](C)C[C@@H]2CC[C@@H](O)[C@H](O)C2)C/C=C(\C)[C@@H](O)CC(=O)[C@H](C)C[C@H](C)/C=C/C=C/C=C/1C (stereo partly specified),–,–,–,Ki [6]: 4.2 nM
CO[C@@H]1C[C@@H]2CC[C@@H](C)[C@@](O)(O2)C(=O)C(=O)N2CCCC[C@H]2C(=O)OC([C@H](C)C[C@@H]2CC[C@@H](O)[C@H](OC)C2)C/C=C(\C)[C@@H](O)CC(=O)[C@H](C)C[C@H](C)/C=C/C=C/C=C/1C (stereo partly specified),–,–,–,Ki [6]: 5.9 nM
Cc1cc(Oc2nc(-c3ccc(N)nc3)nc(N3CCOCC3)n2)ccc1C(=O)N(C)C,–,–,–,IC50 [1]: < 1000 nM
CNC(=O)c1cc(-c2ccc3c(N4CCOC[C@@H]4C)nc(N4CCO[C@@H]5CCC[C@@H]54)nc3n2)ccc1F,–,–,–,inhibition (mTORC1 [7]): 77.5%; inhibition (mTORC1 [8]): 60.8%
CO[C@H]1C[C@@H]2CC[C@@H](C)[C@@](O)(O2)C(=O)C(=O)N2CCCC[C@H]2C(=O)O[C@H]([C@H](C)C[C@@H]2CC[C@@H](OCCCN3CCOC(C)(C)C3)[C@H](OC)C2)CC[C@H](C)/C=C(\C)[C@@H](O)[C@@H](OC)C(NOCC(=O)NCCOCCOCCOCCOCCOCCOCCC(=O)N2CCc3cc(Cn4nc(-c5ccc6oc(N)nc6c5)c5c(N)ncnc54)ccc3C2)[C@H](C)C[C@H](C)C\C=C/C=C/C=C/1C (stereo partly specified),≤ 1 nM,≤ 3.16 nM,1000 nM,–
CO[C@@H]1C[C@@H]2CC[C@@H](C)[C@@](O)(O2)C(=O)C(=O)N2CCCC[C@H]2C(=O)OC([C@H](C)C[C@H]2CC[C@H](O)CC2)C/C=C(\C)[C@@H](O)CC(=O)[C@H](C)C[C@H](C)/C=C/C=C/C=C/1C (stereo partly specified),–,–,–,Ki [6]: 7.9 nM
CN(C)C(=O)c1ccc(Oc2nc(-c3cnc4[nH]ccc4c3)nc(N3CCOCC3)n2)c(F)c1,–,–,–,IC50 [1]: < 1000 nM
CNC(=O)c1cccc(-c2ccc3c(N4CCOC[C@@H]4C)nc(N4CCOc5ccccc54)nc3n2)c1,–,–,–,inhibition (mTORC1 [7]): 87.7%; inhibition (mTORC1 [8]): 61%
C[C@H]1COCCN1c1nc(Oc2ccc(C(=O)N(C)C)cc2)nc(-c2cnc(N)s2)n1,–,–,–,IC50 [1]: < 1000 nM
COc1cccc2cc(-c3nc([C@H]4CC[C@H](C(=O)NCCOCCOCCNC(=O)CCOCCOCCOCCOCCn5cc(CCCCO[C@@H]6CC[C@@H](C[C@@H](C)[C@@H]7C[C@@H](OC)[C@H](C)/C=C(\C)[C@@H](O)[C@@H](OC)C(=O)[C@H](C)C[C@H](C)C\C=C/C=C/C=C(\C)[C@@H](OC)C[C@@H]8CC[C@@H](C)[C@@](O)(O8)C(=O)C(=O)N8CCCC[C@H]8C(=O)O7)C[C@H]6OC)nn5)CC4)n4ncnc(N)c34)[nH]c12,≤ 1 nM,≤ 3.16 nM,> 31.6 nM,–
CO[C@@H]1C[C@@H]2CC[C@@H](C)[C@@](O)(O2)C(=O)C(=O)N2CCCC[C@H]2C(=O)OC([C@H](C)C[C@@H]2CC[C@@H](O)[C@H](OC)C2)CC(O)CC(=O)[C@H](C)/C=C(\C)[C@@H](O)CC(=O)[C@H](C)C[C@H](C)/C=C/C=C/C=C/1C (stereo partly specified),–,–,–,Ki [6]: 6.5 nM
CO[C@H]1C[C@@H]2CC[C@@H](C)[C@@](O)(O2)C(=O)C(=O)N2CCCC[C@H]2C(=O)O[C@H]([C@H](C)C[C@@H]2CC[C@@H](OCc3cccc(-c4cnc(N5CCN(C(=O)CCc6cn(CCOCCOCCC(=O)NCCCCn7nc(-c8ccc9nc(N)oc9c8)c8c(N)ncnc87)nn6)CC5)nc4)c3)[C@H](OC)C2)CC(=O)[C@H](C)/C=C(\C)[C@@H](O)[C@@H](OC)C(=O)[C@H](C)C[C@H](C)C\C=C/C=C/C=C/1C,≤ 1 nM,≤ 3.16 nM,> 31.6 nM,–
CNC(=O)c1cccc(-c2ccc3c(N4CCOC[C@@H]4C)nc(N4CCO[C@@H]5CCCC[C@@H]54)nc3n2)c1,–,–,–,inhibition (mTORC1 [7]): 109%; inhibition (mTORC1 [8]): 77.8%
C\C1=C/C=C/C=C/[C@@H](C)C[C@@H](C)C(=O)C[C@H](O)/C(C)=C/CC([C@H](C)C[C@H]2CC[C@H](O)CC2)OC(=O)[C@@H]2CCCCN2C(=O)C(=O)[C@]2(O)O[C@@H](CC[C@H]2C)C[C@H]1O (stereo partly specified),–,–,–,Ki [6]: 7.7 nM
CO[C@H]1C[C@@H]2CC[C@@H](C)[C@@](O)(O2)C(=O)C(=O)N2CCCC[C@H]2C(=O)O[C@H]([C@H](C)C[C@@H]2CC[C@@H](OCCCN3CCOC(C)(C)C3)[C@H](OC)C2)C[C@@H](O)[C@H](C)/C=C(\C)[C@@H](O)[C@@H](OC)C(NOCC(=O)NCCOCCOCCOCCOCCOCCOCCC(=O)N2CCC(n3nc(-c4ccc5oc(N)nc5c4)c4c(N)ncnc43)CC2)[C@H](C)C[C@H](C)C\C=C/C=C/C=C/1C (stereo partly specified),≤ 1 nM,≤ 3.16 nM,1000 nM,–
Nc1ncnc2c1c(-c1cc3cc(O)ccc3[nH]1)nn2C1CCOCC1,–,–,–,IC50 (mTORC1 [4]): < 5 nM; IC50 [5]: 50 nM
COc1cccc2cc(-c3nc([C@H]4CC[C@H](C(=O)NCCOCCOCCNC(=O)CCOCCOCCOCCOCCn5cc(CCCCO[C@@H]6CC[C@@H](C[C@@H](C)[C@@H]7CC(=O)[C@H](C)/C=C(\C)[C@@H](O)[C@@H](OC)C(=O)[C@H](C)C[C@H](C)C\C=C/C=C/C=C(\C)[C@@H](OC)C[C@@H]8CC[C@@H](C)[C@@](O)(O8)C(=O)C(=O)N8CCCC[C@H]8C(=O)O7)C[C@H]6OC)nn5)CC4)n4ncnc(N)c34)[nH]c12,≤ 1 nM,≤ 3.16 nM,> 31.6 nM,–
Nc1ncnc2c1c(-c1cc3cccc(O)c3[nH]1)nn2C1CCOCC1,–,–,–,IC50 (mTORC1 [4]): < 5 nM; IC50 [5]: 100 nM
C[C@H]1COC[C@H](C)N1c1nc(Oc2ccc(C(=O)N(C)C)cc2)nc(-c2cnc(N)s2)n1,–,–,–,IC50 [1]: < 1000 nM

# Reference: ChEMBL document CHEMBL5214923, “Contemporary mTOR inhibitor scaffolds to diseases breakdown: A patent review (2015-2021)” (Eur J Med Chem, 2022)
